Laboratory results taken from US10906905B2, “Five-membered heteroaryl ring bridged ring derivative, preparation method therefor and medical use thereof” (Jiangsu Hengrui Medicine Co., Ltd., priority 2016, dated 2021).
Read-outs that look alike come from different tables or passages of the source.

Tests used:
TGFβRI kinase ALK5 = TGFβRI kinase ALK5 (Homo sapiens (Human), UniProt P36897); assay: Inhibition of TGFβRI kinase ALK5 activity (TGFβRI kinase assay kit, ADP-Glo); assay type: biochemical; conditions: ATP 50 μM; read-out: IC50 of inhibition effect on TGFβRI kinase ALK5 activity
Method: The inhibition effect of TGFβRI kinase activity in vitro was determined by the following method.
The inhibition effect of the compounds of the present invention on TGFβRI kinase ALK5 activity was determined by the following experimental method:
TGFβRI kinase assay kit (V4093, Promega) was used to assay enzyme activity. 2 μl of enzyme solution (the final concentration of enzyme in the reaction system was 2 ng/μL) formulated with reaction buffer (40 mM Tris pH 7.5, 20 mM MgCl2, 0.1 mg/ml BSA), 1 μl of a 3-fold gradient dilution of the compounds dissolved in 5% DMSO, and 2 μl of a mixed solution of ATP and TGFβRI substrate peptide (the final concentration of ATP was 50 μM, and the final concentration of substrate was 0.2 μg/μL) were added successively to a 384-well plate (4514, Corning). After reaction at 27° C. for 2.5 hours, 5 μl of ADP-Glo solution in the kit was added to each well, then the plate was placed at 27° C. for 40 minutes. 10 μl of kinase assay reagent was then added to each well, then the plate was placed at 27° C. for 30 minutes. The chemiluminescence signal values were measured with a Victor 3 (PerkinElmer) multi-function microplate reader. The IC50 values of the compounds for enzyme inhibition were calculated using Graphpad prism software based on each concentration of the compound and the corresponding signal value thereof.

[1] = system: Smad signaling pathway of TGFβRI; assay: Inhibition of Smad signaling pathway of TGFβRI (3TP-lux luciferase reporter in HepG2 cell); assay type: cell-based; conditions: Homo sapiens, read-out: IC50 on the inhibition of Smad signaling pathway of TGFβRI
Method: The inhibition effect of the compounds of the present invention on Smad signaling pathway of TGFβRI was determined by the following in vitro test.
The inhibition effect of the compounds of the present invention on Smad signaling pathway of TGFβRI was determined by the following experimental method:
The seeding density is 2.5×10^4 cells/well. The cells were incubated overnight at 37° C., 5% CO2. Each well was replaced with fresh EMEM medium containing 10% FBS. […] The cells were further incubated for 24 hours at 37° C., 5% CO2. Each well was replaced with 90 μL of EMEM medium containing 0.5% FBS, then the cells were starved for 6 hours. The compounds were formulated as a 20 mM stock solution, which was diluted in gradient to a 400× concentration with 100% DMSO, and further 40-fold diluted with EMEM containing 0.5% FBS. The cell culture plate was taken out, then 10 μl of diluted compound or control (0.25% DMSO) was added to each well respectively. The plate was shaken gently, then incubated for 18 hours in an incubator at 37° C., 5% CO2. Finally, 100 μl of detection reagent ONE-Glo™ Luciferase Assay (E6110, Promega) was added to each well, and the plate was placed in dark at room temperature for 10 minutes. The chemiluminescence signal values were measured with a Victor 3.0 (PerkinElmer). The IC50 values of the compounds were calculated using Graphpad Prism software based on each concentration of the compound and the corresponding signal value thereof.

[2] = HepG2 cell, 3TP-lux plasmid, 18 hours

Sequence of TGFβRI kinase ALK5 (P36897 34-503): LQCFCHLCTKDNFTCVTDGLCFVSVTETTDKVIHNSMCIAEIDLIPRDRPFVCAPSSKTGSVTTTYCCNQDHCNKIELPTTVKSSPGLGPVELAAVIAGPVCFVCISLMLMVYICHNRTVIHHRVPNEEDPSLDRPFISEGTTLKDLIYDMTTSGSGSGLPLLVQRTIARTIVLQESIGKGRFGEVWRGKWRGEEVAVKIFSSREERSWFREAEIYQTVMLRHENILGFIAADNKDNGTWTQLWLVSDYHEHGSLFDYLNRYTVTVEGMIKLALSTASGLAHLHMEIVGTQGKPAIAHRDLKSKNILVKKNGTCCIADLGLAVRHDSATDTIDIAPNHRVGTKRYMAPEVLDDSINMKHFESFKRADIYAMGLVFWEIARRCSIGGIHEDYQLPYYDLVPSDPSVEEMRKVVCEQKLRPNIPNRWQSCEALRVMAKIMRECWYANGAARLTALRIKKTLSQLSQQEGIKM

| Structure (SMILES) | IC50 (TGFβRI kinase ALK5) [µM] | IC50 [1, 2] [µM] | IC50 ([1]; HepG2, 18 h) [µM] |
| --- | --- | --- | --- |
| Cc1cccc(-c2nc3n(c2-c2ccc4nnc(C(N)=O)n4c2)[C@@H]2CC[C@H]3C2)n1 [Example 2-2, 6-((5R,8S)-2-(6-Methylpyridin-2-yl)-5,6,7,8-tetrahydro-5,8-methanoimidazo[1,2-a]pyridin-3-yl)[1,2,4]triazolo[4,3-a]pyridine-3-carboxamide] | 0.003 | 0.036 | – |
| Cc1cccc(-c2nc3n(c2-c2ccnc(-c4ccc(S(C)(=O)=O)cc4)c2)C2CCC3C2)n1 (centres unmarked) [Example 3, 2-(6-Methylpyridin-2-yl)-3-(2-(4-(methylsulfonyl)phenyl)pyridin-4-yl)-5,6,7,8-tetrahydro-5,8-methanoimidazo[1,2-a]pyridine] | – | 0.058 | – |
| Cc1cccc(-c2nc3n(c2-c2ccnc(NCCO)c2)C2CCC3C2)n1 (centres unmarked) [Example 5, 2-((4-(2-(6-Methylpyridin-2-yl)-5,6,7,8-tetrahydro-5,8-methanoimidazo[1,2-a]pyridin-3-yl)pyridin-2-yl)amino)ethanol] | 0.059 | 0.039 | – |
| Cc1cccc(-c2nc3n(c2-c2ccnc(NCCO)c2)[C@H]2CC[C@@H]3C2)n1 [Example 5-1, 2-((4-((5S,8R)-2-(6-Methylpyridin-2-yl)-5,6,7,8-tetrahydro-5,8-methanoimidazo[1,2-a]pyridin-3-yl)pyridin-2-yl)amino)ethanol] | 0.046 | – | 0.075 |
| Cc1cccc(-c2nc3n(c2-c2ccnc(-c4ccc(S(N)(=O)=O)cc4)c2)[C@H]2CC[C@@H]3C2)n1 [Example 13-1, 4-(4-((5S,8R)-2-(6-Methylpyridin-2-yl)-5,6,7,8-tetrahydro-5,8-methanoimidazo[1,2-a]pyridin-3-yl)pyridin-2-yl)benzenesulfonamide] | 0.011 | 0.037 | – |
| Cc1cccc(-c2nc3n(c2-c2ccnc(Nc4ccc(S(N)(=O)=O)cc4)c2)C2CCC3C2)n1 (centres unmarked) [Example 14, 4-((4-(2-(6-Methylpyridin-2-yl)-5,6,7,8-tetrahydro-5,8-methanoimidazo[1,2-a]pyridin-3-yl)pyridin-2-yl)amino)benzenesulfonamide] | 0.031 | – | 0.081 |
| Cc1cccc(-c2nc3n(c2-c2ccc4nccc(OC5CCNCC5)c4c2)C2CCC3C2)n1 (centres unmarked) [Example 15, 2-(6-Methylpyridin-2-yl)-3-(4-(piperidin-4-yloxy)quinolin-6-yl)-5,6,7,8-tetrahydro-5,8-methanoimidazo[1,2-a]pyridine] | 0.06 | – | – |
| Cc1cccc(-c2nc3n(c2-c2ccnc(-c4ccc(C(=O)NC5CCOCC5)cc4)c2)C2CCC3C2)n1 (centres unmarked) [Example 17, 4-(4-(2-(6-Methylpyridin-2-yl)-5,6,7,8-tetrahydro-5,8-methanoimidazo[1,2-a]pyridin-3-yl)pyridin-2-yl)-N-(tetrahydro-2H-pyran-4-yl)benzamide] | 0.038 | – | – |
| Cc1cccc(-c2nc3n(c2-c2ccnc(NC[C@H](C)O)c2)[C@H]2CC[C@@H]3C2)n1 [Example 18-1, (S)-1-((4-((5S,8R)-2-(6-Methylpyridin-2-yl)-5,6,7,8-tetrahydro-5,8-methanoimidazo[1,2-a]pyridin-3-yl)pyridin-2-yl)amino)propan-2-ol] | 0.08 | 0.088 | – |
| Cc1cccc(-c2nc3n(c2-c2ccnc(-c4ccc(C(=O)O)cc4)c2)C2CCC3C2)n1 (centres unmarked) [Example 19, 4-(4-(2-(6-Methylpyridin-2-yl)-5,6,7,8-tetrahydro-5,8-methanoimidazo[1,2-a]pyridin-3-yl)pyridin-2-yl)benzoic acid] | 0.087 | – | – |
| Cc1cccc(-c2nc3n(c2-c2ccc(=O)n(C)c2)C2CCC3C2)n1 (centres unmarked) [Example 20, 1-Methyl-5-(2-(6-methylpyridin-2-yl)-5,6,7,8-tetrahydro-5,8-methanoimidazo[1,2-a]pyridin-3-yl)pyridin-2(1H)-one] | – | 0.053 | – |
| Cc1cccc(-c2nc3n(c2-c2ccnc(OCCO)c2)C2CCC3C2)n1 (centres unmarked) [Example 26, 2-((4-(2-(6-Methylpyridin-2-yl)-5,6,7,8-tetrahydro-5,8-methanoimidazo[1,2-a]pyridin-3-yl)pyridin-2-yl)oxy)ethanol] | – | 0.086 | – |
| Cc1cccc(-c2nc3n(c2-c2ccnc4ccc(C(N)=O)cc24)C2CCC3C2)n1 (centres unmarked) [Example 29, 4-(2-(6-Methylpyridin-2-yl)-5,6,7,8-tetrahydro-5,8-methanoimidazo[1,2-a]pyridin-3-yl) quinoline-6-carboxamide] | 0.085 | – | – |
| Cc1cccc(-c2nc3n(c2-c2ccnc(NC(=O)OC(C)(C)C)c2)C2CCC3C2)n1 (centres unmarked) [Example 31, Tert-butyl (4-(2-(6-methylpyridin-2-yl)-5,6,7,8-tetrahydro-5,8-methanoimidazo[1,2-a]pyridin-3-yl)pyridin-2-yl)carbamate] | 0.055 | – | – |
| Cc1cccc(-c2nc3n(c2-c2ccnc(N)c2)C2CCC3C2)n1 (centres unmarked) [Example 32, 4-(2-(6-Methylpyridin-2-yl)-5,6,7,8-tetrahydro-5,8-methanoimidazo[1,2-a]pyridin-3-yl)pyridin-2-amine] | 0.009 | – | 0.008 |
| Cc1cccc(-c2nn3c(c2-c2ccnc4ccc(C(N)=O)cc24)C2CCC3CC2)n1 [Example 34, 4-(2-(6-Methylpyridin-2-yl)-4,5,6,7-tetrahydro-4,7-ethanopyrazolo[1,5-a]pyridin-3-yl)quinoline-6-carboxamide] | 0.012 | – | – |
| Cc1cccc(-c2nn3c(c2-c2ccnc4ccc(C(N)=O)cc24)C2CCC3C2)n1 (centres unmarked) [Example 35, 4-(2-(6-Methylpyridin-2-yl)-4,5,6,7-tetrahydro-4,7-methanopyrazolo[1,5-a]pyridin-3-yl)quinoline-6-carboxamide] | 0.012 | – | – |
| Cc1cccc(-c2nn3c(c2-c2ccnc(NCCO)c2)C2CCC3CC2)n1 [Example 37, 2-((4-(2-(6-Methylpyridin-2-yl)-4,5,6,7-tetrahydro-4,7-ethanopyrazolo[1,5-a]pyridin-3-yl)pyridin-2-yl)amino)ethanol] | – | 0.061 | – |
| NC(=O)c1ccc(-c2cc(-c3c(-c4ccc(F)cn4)nc4n3[C@H]3CC[C@@H]4C3)ccn2)cc1 [Example 41-1, 4-(4-((5S,8R)-2-(5-Fluoropyridin-2-yl)-5,6,7,8-tetrahydro-5,8-methanoimidazo[1,2-a]pyridin-3-yl)pyridin-2-yl)benzamide] | 0.028 | – | – |
| Cc1cccc(-c2nc3n(c2-c2ccnc(-c4cnn(S(C)(=O)=O)c4)c2)C2CCC3C2)n1 (centres unmarked) [Example 43, 2-(6-Methylpyridin-2-yl)-3-(2-(1-(methylsulfonyl)-1H-pyrazol-4-yl)pyridin-4-yl)-5,6,7,8-tetrahydro-5,8-methanoimidazo[1,2-a]pyridine] | 0.021 | – | 0.011 |
| CS(=O)(=O)c1ccc(-c2cc(-c3c(-c4ccccn4)nc4n3[C@H]3CC[C@@H]4C3)ccn2)cc1 [Example 46-1, (5S,8R)-3-(2-(4-(Methylsulfonyl)phenyl)pyridin-4-yl)-2-(pyridin-2-yl)-5,6,7,8-tetrahydro-5,8-methanoimidazo[1,2-a]pyridine] | 0.034 | 0.079 | – |
| NC(=O)c1nnc2cc(-c3c(-c4ccccn4)nc4n3[C@H]3CC[C@@H]4C3)ccn12 [Example 47-1, 7-((5S,8R)-2-(Pyridin-2-yl)-5,6,7,8-tetrahydro-5,8-methanoimidazo[1,2-a]pyridin-3-yl)-[1,2,4]triazolo[4,3-a]pyridine-3-carboxamide] | 0.039 | 0.053 | – |
